System: MDA-MB-231 human breast adenocarcinoma cell line
Experiment: WST-1 cell viability assay, MDA-MB-231
Format: cell-based
Settings: Homo sapiens, MDA-MB-231; WST-1, 24 h treatment, mean ± S.D of three independent experiments
From the text: The synthesized compounds were screened for their cytotoxicity on five cancer cell lines, namely SK-OV-3, MCF-7, MDA-MB-231, HCT-116 and RKO, using a WST colorimetric assay. The assay principle is based upon the reduction of the tetrazolium salt WST-1 to formazan by cellular mitochondrial dehydrogenases present in viable cells. […] Among the latter compounds the benzohydrazide derivative 9a emerged with the lowest IC50 in this study against MCF-7 cells compared to 5-FU. […] Based on the fact that 9a had less cytotoxic effects on normal breast epithelial cells it was subjected to further studies.
The following cell lines were used for the screening stage, obtained from the American Type Culture Collection (ATCC, Manassas, VA, USA); SK-OV-3 (HTB-77), MCF-12A (ATCC CRL-10782), MDA-MB-231 (ATCC HTB-26), HCT-116 (CCL-247), RKO (CRL-2577) and sub-culturing of the above cell lines was conducted in 75 cm^2 flasks. The old culture media was removed and discarded after assessing the confluency of the cells and the cells were rinsed with 2–3 mL diluted trypsin (1×) (trypsin/EDTA solution consists of 0.025% trypsin and 0.01% EDTA in PBS), for about 5 minutes for complete detachment. The cells were observed under the inverted microscope until the cell layer is completely dispersed. 75 cm^2 flasks were prepared and 16 mL of DMEM media for SK-OV-3, MCF-7, MDA-MB-231, (DMEM 4500 mg glucose) and RPMI media for HCT-116 were added to each flask. The cells were aspirated gently and added to the flasks. DMEM 4500 mg/L high glucose with 10% FBS, 5% streptomycin and penicillin, RPMI 1640 (prepared by adding 5% heat-inactivated FCS and 2 mm glutamine) were used. DMEM was also used for MCF-12A cells with the addition of human epidermal growth factor 20 ng/mL, insulin 0.01 mg/mL and hydrocortisone 500 ng/mL.
The synthesized compounds were screened for their anti-proliferative activity using 5-FU (F6627-1G, Sigma-Aldrich, St. Louis, MO, USA) as reference compound. A concentration of 0.4% DMSO was used in all experiment after ensuring 100% viability of the cell lines with this concentration. A 25 mM stock concentration of all compounds was prepared for further studies and analysis.
Cells were trypsinized and placed in a 15 mL Falcon tube, the cells were centrifuged for 3 min at 1000 rpm. Trypsin is decanted using a sterile pipette and then the pellet is loosened by flicking the tube few times then 5–10 mL warm DMEM or RPMI were added to the Falcon tube and the pellet is resuspended. Cell count was done next by taking 10 μL of the suspension into the cell counting slide and read under 10× cells/mL. A cell stock of 50,000 cells/mL was prepared for the 96 wells. Cells (100 μL) were added to each well using a sterile pipette each time to ensure consistency. The experiment was planned ahead of time using excel sheet, 3–6 wells were reserved as blank media while 3–6 wells for vehicle (DMSO). The plate was incubated for 24 h for compound treatment step. DMEM media was used to prepare different dilutions of the compounds. The old DMEM media was removed from the wells using sterile pipette in the hood and the media was replaced with 100 μL media with each compound. The plate was incubated for 24 h. After 24 h incubation, WST-1 reagent (Sigma) was added to each well and then the plate was incubated for 1 h before measuring the absorbance using VICTOR™ Multilabel Plate Reader (Perkin Elmer, Beaconsfield, UK). The absorbance of the colored solution can be quantified by measuring at a certain wavelength (usually between 500–600 nm), in this experiment the first reading was conducted at 540 nm and the second reading at 690 nm for the reference wavelength. The percentage of cell viability was determined as the ratio of the absorbance of the sample vs the control. Three independent experiments were performed. […] 5-Florouracil (Sigma-Aldrich, F6627-1G) was used as reference standard.

IC50: 22.3 ± 0.88 µM
SMILES: COc1ccc(-c2cc(-c3ccc(OC)c(OC)c3)c(C#N)c(OCC(=O)NNC(=O)c3ccccc3)n2)cc1OC [Compound 9a, N'-[2-(3-cyano-4,6-bis(3,4-dimethoxyphenyl)pyridin-2-yloxy)acetyl]benzohydrazide]

Source: article PMC6274259, “New 3-Cyano-2-Substituted Pyridines Induce Apoptosis in MCF 7 Breast Cancer Cells” (Molecules, 2016)
